Data from US11591335B2, “Bicyclic pesticidal compounds” (BASF SE, priority 2017, dated 2023).

Legend:
Assay type in all cases: in vivo
Plutella xylostella = experiment: Diamond back moth (Plutella xylostella), cabbage leaf dip test; conditions: foliar, 3rd instar larvae, 72 hours after treatment, read-out: mortality in comparison with untreated controls
Procedure: (§1) The active compound is dissolved at the desired concentration in a mixture of 1:1 (vol:vol) distilled water: acetone. Surfactant (Kinetic® HV) is added at a rate of 0.01% (vol/vol). The test solution is prepared at the day of use.
Leaves of cabbage were dipped in test solution and air-dried. Treated leaves were placed in petri dishes lined with moist filter paper and inoculated with ten 3rd instar larvae. Mortality was recorded 72 hours after treatment. Feeding damages were also recorded using a scale of 0-100%.

Heliothis virescens = experiment: Tobacco budworm (Heliothis virescens) control, microtiter plate insect diet test; conditions: 120 h, egg and larval mortality after 5 days, read-out: mortality in comparison with untreated controls
Procedure: For evaluating control of tobacco budworm (Heliothis virescens) the test unit consisted of 96-well-microtiter plates containing an insect diet and 15-25 H. virescens eggs.
The compounds were formulated using a solution containing 75% v/v water and 25% v/v DMSO. Different concentrations of formulated compounds were sprayed onto the insect diet at 10 μl, using a custom built micro atomizer, at two replications.
After application, microtiter plates were incubated at about 28±1° C. and about 80±5% relative humidity for 5 days. Egg and larval mortality was then visually assessed.

Myzuspersicae = experiment: Green peach aphid (Myzuspersicae) control through systemic means, artificial diet under membrane; conditions: Myzus persicae, 72 h, adult aphids on treated diet, 3 days, read-out: mortality in comparison with untreated controls
Excerpt: For evaluating control of green peach aphid (Myzuspersicae) through systemic means the test unit consisted of 96-well-microtiter plates containing liquid artificial diet under an artificial membrane.
The compounds were formulated using a solution containing 75% v/v water and 25% v/v DMSO. Different concentrations of formulated compounds were pipetted into the aphid diet, using a custom built pipetter, at two replications.
After application, 5-8 adult aphids were placed on the artificial membrane inside the microtiter plate wells. The aphids were then allowed to suck on the treated aphid diet and incubated at about 23±1° C. and about 50±5% relative humidity for 3 days. Aphid mortality and fecundity was then visually assessed.

Spodoptera Eridania = experiment: Southern armyworm (Spodoptera Eridania), sprayed lima bean plants; conditions: 96 h, larvae, 4 days after treatment, read-out: mortality in comparison with untreated controls
Procedure: The active compounds were formulated by a Tecan liquid handler in 100% cyclohexanone as a 10,000 ppm solution supplied in tubes. The 10,000 ppm solution was serially diluted in 100% cyclohexanone to make interim solutions. These served as stock solutions for which final dilutions were made by the Tecan in 50% acetone:50% water (v/v) into 10 or 20 ml glass vials. A nonionic surfactant (Kinetic®) was included in the solution at a volume of 0.01% (v/v). The vials were then inserted into an automated electrostatic sprayer equipped with an atomizing nozzle for application to plants/insects.
Lima bean plants (variety Sieva) were grown 2 plants to a pot and selected for treatment at the 1st true leaf stage. Test solutions were sprayed onto the foliage by an automated electrostatic plant sprayer equipped with an atomizing spray nozzle. The plants were dried in the sprayer fume hood and then removed from the sprayer. Each pot was placed into perforated plastic bags with a zip closure. About 10 to 11 armyworm larvae were placed into the bag and the bags zipped closed. Test plants were maintained in a growth room at about 250C and about 20-40% relative humidity for 4 days, avoiding direct exposure to fluorescent light (24 hour photoperiod) to prevent trapping of heat inside the bags. Mortality and reduced feeding were assessed 4 days after treatment, compared to untreated control plants.

Bemisia argentifolii = experiment: Silverleaf whitefly (Bemisia argentifolii), sprayed cotton plants; conditions: 72 h, adults, 3 days after treatment, read-out: mortality in comparison with untreated controls
Procedure: The active compounds were formulated by a Tecan liquid handler in 100% cyclohexanone as a 10,000 ppm solution supplied in tubes. The 10,000 ppm solution was serially diluted in 100% cyclohexanone to make interim solutions. These served as stock solutions for which final dilutions were made by the Tecan in 50% acetone:50% water (v/v) into 5 or 10 ml glass vials. A nonionic surfactant (Kinetic®) was included in the solution at a volume of 0.01% (v/v). The vials were then inserted into an automated electrostatic sprayer equipped with an atomizing nozzle for application to plants/insects.
Cotton plants at the cotyledon stage (one plant per pot) were sprayed by an automated electrostatic plant sprayer equipped with an atomizing spray nozzle. The plants were dried in the sprayer fume hood and then removed from the sprayer. Each pot was pla-ced into a plastic cup and about 10 to 12 whitefly adults (approximately 3-5 days old) were introduced. The insects were collected using an aspirator and a nontoxic Tygon® tubing connected to a barrier pipette tip. The tip, containing the collected insects, was then gently inserted into the soil containing the treated plant, allowing insects to crawl out of the tip to reach the foliage for feeding. Cups were covered with a reusable screened lid. […] Mortality was assessed 3 days after treatment, compared to untreated control plants.

Anthonomus grandis = experiment: Boll weevil (Anthonomus grandis) control, microtiter plate insect diet test; conditions: 120 h, egg and larval mortality after 5 days, read-out: mortality in comparison with untreated controls
Procedure: For evaluating control of boll weevil (Anthonomus grandis) the test unit consisted of 96-well-microtiter plates containing an insect diet and 5-10 A. grandis eggs.
The compounds were formulated using a solution containing 75% v/v water and 25% v/v DMSO. Different concentrations of formulated compounds were sprayed onto the insect diet at 5 μl, using a custom built micro atomizer, at two replications.
After application, microtiter plates were incubated at about 25±1° C. and about 75±5% relative humidity for 5 days. Egg and larval mortality was then visually assessed.

Nilaparvata lugens = experiment: Rice brown plant hopper (Nilaparvata lugens), sprayed rice seedlings; conditions: adults, after 72 hours, read-out: mortality in comparison with untreated controls
Procedure: (§2) Four to five-week old rice seedlings were cleaned and washed 24 hours before spraying. The active compounds were formulated in 1:1 acetone:water (vol:vol) and 0.01% vol/vol surfactant (Kinetic® HV) was added. Potted rice seedlings were sprayed with 5-6 ml test solution, air dried, covered with Mylar cages and inoculated with 10 adults. Treated rice plants were kept at about 28-29° C. and relative humidity of about 50-60%. Percent mortality was recorded after 72 hours.

Nezara viridula = experiment: Green soldier stink bug (Nezara viridula), sprayed soybean pods in Petri dishes; conditions: 120 h, late 3rd instar, after 5 days, read-out: mortality in comparison with untreated controls
Procedure: The active compound is dissolved at the desired concentration in a mixture of 1:1 (vol:vol) distilled water: aceteone. Surfactant (Kinetic® HV) is added at a rate of 0.01% (vol/vol). The test solution is prepared at the day of use.
Soybean pods were placed in 90×50 mm glass Petri dishes lined with moist filter paper and inoculated with ten late 3rd instar N. viridula. Using a hand atomizer, an approximately 2 ml solution is sprayed into each Petri dish. Treated cups were kept at about 25-26° C. and relative humidity of about 65-70%. Percent mortality was recorded after 5 days.

Nephotettix virescens = experiment: Rice green leafhopper (Nephotettix virescens), sprayed rice seedlings; conditions: adults, after 72 hours, read-out: mortality in comparison with untreated controls
Procedure: as §2, with “rice seedlings with cut upper leaf portion were cleaned” for “rice seedlings were cleaned”, “1:1 acetone:water (vol:vol), and 0.01%” for “1:1 acetone:water (vol:vol) and 0.01%”

Megoura viciae = experiment: Vetch aphid (Megoura viciae) control, broad bean leaf disk test; conditions: foliar, 120 h, adult aphids on treated leaf disks, 5 days, read-out: mortality in comparison with untreated controls
Procedure: For evaluating control of vetch aphid (Megoura viciae) through contact or systemic means the test unit consisted of 24-well-microtiter plates containing broad bean leaf disks.
The compounds were formulated using a solution containing 75% v/v water and 25% v/v DMSO. Different concentrations of formulated compounds were sprayed onto the leaf disks at 2.5 μl, using a custom built micro atomizer, at two replications.
After application, the leaf disks were air-dried and 5-8 adult aphids placed on the leaf disks inside the microtiter plate wells. The aphids were then allowed to suck on the treated leaf disks and incubated at about 23±1° C. and about 50±5% relative humidity for 5 days. Aphid mortality and fecundity was then visually assessed.

Aphis craccivora = experiment: Cowpea aphid (Aphis craccivora), sprayed potted cowpea plants; conditions: after 72 hours, read-out: mortality in comparison with untreated controls
Procedure: as §1
Potted cowpea plants were colonized with approximately 30-50 aphids of various stages by manually transferring a leaf tissue cut from infested plant 24 hours before application. Plants were sprayed with the test solutions using a DeVilbiss® hand atomizer at 20-30 psi (=1.38 to 2.07 bar) after the pest population has been checked. Treated plants are maintained on light carts at about 25-26° C. Percent mortality was assessed after 72 hours.

Chilo suppressalis = experiment: Striped stem borer (Chilo suppressalis), sprayed petriplates with rice straw; conditions: 300 ppm; first-instar larvae, 72 hours after treatment
Procedure: as §1
Ten first-instar larvae are allowed to crawl on sprayed petriplates for 1 minute and then provided with one freshly cut rice straw per plate. After 10 minutes when all of the larvae are inside the straw will then be covered with Petri lid. Percent mortality is recorded after 72 hours after treatment.

| SMILES | mortality at 300 ppm (Plutella xylostella) [%] | mortality at 2500 ppm (Heliothis virescens) [%] | mortality at 2500 ppm (Myzuspersicae) [%] | mortality at 300 ppm (Spodoptera Eridania) [%] | mortality at 300 ppm (Bemisia argentifolii) [%] | mortality at 2500 ppm (Anthonomus grandis) [%] | mortality at 300 ppm (Nilaparvata lugens) [%] | mortality at 300 ppm (Nezara viridula) [%] | mortality at 300 ppm (Nephotettix virescens) [%] | mortality at 2500 ppm (Megoura viciae) [%] | mortality at 300 ppm (Aphis craccivora) [%] | mortality in comparison with untreated controls (Chilo suppressalis) |
| --- | --- | --- | --- | --- | --- | --- | --- | --- | --- | --- | --- | --- |
| CCS(=O)(=O)c1ccc(-n2cnc(C(F)(F)F)n2)nc1-c1cn2c(=O)n(C)c(C(F)(F)F)cc2n1 [I-1-1, 2-[3-ethylsulfonyl-6-[3-(trifluoromethyl)-1,2,4-triazol-1-yl]-2-pyridyl]-6-methyl-7-(trifluoromethyl)imidazo[1,2-c]pyrimidin-5-one] | > 75 | > 75 | > 75 | > 75 | > 75 | > 75 |  |  |  |  |  |  |
| CCS(=O)(=O)c1cc(N2CCCC2=O)cnc1-c1cn2c(=O)n(C)c(C(F)(F)F)cc2n1 [I-1-3, 2-[3-ethylsulfonyl-5-(2-oxopyrrolidin-1-yl)-2-pyridyl]-6-methyl-7-(trifluoromethyl)imidazo[1,2-c]pyrimidin-5-one] |  | > 75 | > 75 | > 75 |  | > 75 | > 75 | > 75 | > 75 | > 75 | > 75 |  |
| CCS(=O)(=O)c1cc(-c2ncccc2F)cnc1-c1cn2c(=O)n(C)c(C(F)(F)F)cc2n1 [I-1-4] |  |  |  |  |  |  |  |  |  |  |  | over 75% |
